Measured values taken from patent US20250154173A1 (Merck Sharp & Dohme LLC, priority 2023, published 2025).

Molecular target: T1, GST-RIPK1 (recombinant GST-RIPK1 kinase domain (residues 1-327)) (Homo sapiens, UniProt Q13546)
T1 construct: recombinant GST-RIPK1 kinase domain (residues 1-327) enzyme produced from baculovirus-transfected Sf21 cells; host or cells: baculovirus-transfected Sf21 insect cells
T1 sequence (Q13546 1-327): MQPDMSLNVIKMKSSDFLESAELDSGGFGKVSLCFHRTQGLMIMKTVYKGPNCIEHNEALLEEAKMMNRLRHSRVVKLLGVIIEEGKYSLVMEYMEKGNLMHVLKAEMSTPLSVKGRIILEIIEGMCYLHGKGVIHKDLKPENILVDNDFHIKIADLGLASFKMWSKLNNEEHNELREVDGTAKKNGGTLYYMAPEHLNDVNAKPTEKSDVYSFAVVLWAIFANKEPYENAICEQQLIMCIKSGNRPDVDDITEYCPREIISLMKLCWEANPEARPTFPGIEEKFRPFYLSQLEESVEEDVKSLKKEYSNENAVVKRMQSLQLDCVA
Experiment: RIPK1-ADP-Glo Enzymatic Assay
Format: biochemical
Conditions: ten-point titration, top compound concentration of 100000 nM; 25 nM GST-RIPK1, 300 μM ATP, 3 μM dephosphorylated-MBP; 30 min pre-incubation, 150 min reaction
Procedure: RIPK1-ADP-Glo Enzymatic Assay
The enzymatic activity of RIPK1 is measured using an assay derived from ADP-Glo kit (TMPromega), which provides a luminescent-based ADP detection system. Specifically, the ADP generated by RIPK1 kinase is proportionally detected as luminescent signals in a homogenous fashion. In this context, the assessment of the inhibitory effect of small molecules (EC50) is measured by the effectiveness of the compounds to inhibit the ATP to ADP conversion by RIPK1.
In this assay, the potency (EC50) of each compound was determined from a ten-point (1:3 serial dilution; top compound concentration of 100000 nM) titration curve using the following outlined procedure. To each well of a white ProxiPlus 384 well-plate, 30 nL of compound (1% DMSO in final assay volume of 3 μL) was dispensed, followed by the addition of 2 μL of 1× assay buffer (25 mM Hepes 7.3, 20 mM MgCl2, 50 mM NaCl, 1 mM DTT, 0.005% Tween20, and 0.02% BSA) containing 37.5 nM of GST-RIPK1 (recombinant GST-RIPK1 kinase domain (residues 1-327) enzyme produced from baculovirus-transfected Sf21 cells: MW=62 kDa). Plates were placed in an ambient temperature humidified chamber for a 30 minutes pre-incubation with compound. Subsequently, each reaction was initiated by the addition of 1 μL 1× assay buffer containing 900 μM ATP and 3 μM dephosphorylated-MBP substrate. The final reaction in each well of 3 μL consists of 25 nM of GST-RIPK1, 300 μM ATP, and 3 μM dephosphorylated-MBP. Kinase reactions were allowed to proceed for 150 minutes prior to adding ADP-Glo reagents per Promega's outlined kit protocol. Dose-response curves were generated by plotting percent effect (% product conversion; Y-axis) vs. Log 10 compound concentrations (X-axis). EC50 values were calculated using a non-linear regression, four-parameters sigmoidal dose-response model.

Compound | EC50
O=C1N2[C@@H](CC[C@H]2c2ccc(F)cc2)O[C@]12C[C@H](Oc1ncnn3cccc13)C2 [Example 9.27, (1r,3R,5′S,7a′R)-5′-(4-fluorophenyl)-3-[(pyrrolo[2,1-f][1,2,4]triazin-4-yl)oxy]tetrahydro-3′H-spiro[cyclobutane-1,2′-pyrrolo[2,1-b][1,3]oxazol]-3′-one] | 12 nM
O=C1N2C(CC[C@H]2c2cnccn2)OC12CC(OCc1cc3cncnc3s1)C2 (stereo partly drawn) [Example 18.107, (5′S)-5′-(pyrazin-2-yl)-3-(thieno[2,3-d]pyrimidin-6-ylmethoxy)tetrahydro-3′H-spiro[cyclobutane-1,2′-pyrrolo[2,1-b]oxazol]-3′-one] | 34 nM
O=C1N2[C@@H](CC[C@H]2c2cnccn2)OC12CC(OCc1cccc(F)c1)C2 (single isomer, unassigned) [Example 22.8] | 35 nM
CCC(C)Oc1cccc(COC2CC3(C2)OC2CC[C@@H](c4cnccn4)N2C3=O)n1 (stereo partly drawn) [Example 18.13, (5′S)-3-({6-[(butan-2-yl)oxy]pyridin-2-yl}methoxy)-5′-(pyrazin-2-yl)tetrahydro-3′H-spiro[cyclobutane-1,2′-pyrrolo[2,1-b][1,3]oxazol]-3′-one] | 46 nM
O=C1N2C(CC[C@H]2c2cnccn2)OC12CC(OCc1csc(C3CC3)n1)C2 (stereo partly drawn) [Example 18.71, (5′S)-3-[(2-cyclopropyl-1,3-thiazol-4-yl)methoxy]-5′-(pyrazin-2-yl)tetrahydro-3′H-spiro[cyclobutane-1,2′-pyrrolo[2,1-b][1,3]oxazol]-3′-one] | 796 nM
O=C1N2[C@@H](CC[C@H]2c2ccccc2)OC12CC(Oc1cccc(C(F)(F)F)c1)C2 (stereo partly drawn) [Example 8.15, (5′S,7a′R)-5′-phenyl-3-[3-(trifluoromethyl)phenoxy]tetrahydro-3′H-spiro[cyclobutane-1,2′-pyrrolo[2,1-b][1,3]oxazol]-3′-one] | 37 nM
O=C1N2[C@@H](CC[C@H]2c2cc(F)cc(F)c2)O[C@]12C[C@H](Oc1cc(-n3cccn3)ncn1)C2 [Example 9.6, (5′S,7a′R)-5′-(3,5-difluorophenyl)-3-{[6-(1H-pyrazol-1-yl)pyrimidin-4-yl]oxy}tetrahydro-3′H-spiro[cyclobutane-1,2′-pyrrolo[2,1-b][1,3]oxazol]-3′-one] | 12 nM
CC(OC1CC2(C1)OC1CCC(c3cc(F)cc(F)c3)N1C2=O)c1ccccc1 (single isomer, unassigned) [Example 15.2, ((1R or S),3R,5′S,7a′R)-5′-(3,5-difluorophenyl)-3-((S or R)-1-phenylethoxy)tetrahydro-3′H-spiro[cyclobutane-1,2′-pyrrolo[2,1-b]oxazol]-3′-one] | 70 nM
O=C1N2[C@@H](CC[C@H]2c2ccc(F)cc2)OC12CC(Oc1nccn3ccnc13)C2 (stereo partly drawn) [Example 9.58, (5′S,7a′R)-5′-(4-fluorophenyl)-3-[(imidazo[1,2-a]pyrazin-8-yl)oxy]tetrahydro-3′H-spiro[cyclobutane-1,2′-pyrrolo[2,1-b][1,3]oxazol]-3′-one] | 467 nM
N#Cc1ccnc(O[C@H]2C[C@@]3(C2)O[C@@H]2CC[C@@H](c4ccc(F)cc4)N2C3=O)c1 [Example 9.28, 2-{[(1r,3R,5′S,7a′R)-5′-(4-fluorophenyl)-3′-oxotetrahydro-3′H-spiro[cyclobutane-1,2′-pyrrolo[2,1-b][1,3]oxazol]-3-yl]oxy}pyridine-4-carbonitrile] | 16 nM
O=C1N2[C@@H](CC[C@H]2c2cc(F)cc(F)c2)OC12CC(Oc1ccccc1)C2 (single isomer, unassigned) [Example 16.2, ((1r or s),3R,5′S,7a′R)-5′-(3,5-difluorophenyl)-3-phenoxytetrahydro-3′H-spiro[cyclobutane-1,2′-pyrrolo[2,1-b]oxazol]-3′-one] | 29 nM
N#Cc1cc(OC2CC3(C2)O[C@@H]2CC[C@@H](c4cccc(F)c4F)N2C3=O)ncn1 (single isomer, unassigned) [Example 9.41, 6-{[(5′S,7a′R)-5′-(2,3-difluorophenyl)-3′-oxotetrahydro-3′H-spiro[cyclobutane-1,2′-pyrrolo[2,1-b][1,3]oxazol]-3-yl]oxy}pyrimidine-4-carbonitrile] | 14 nM
Cn1ccc([C@@H]2CC[C@H]3O[C@]4(C[C@H](Oc5ncnn6cccc56)C4)C(=O)N32)n1 [Example 9.63, (1r,3R,5′S,7a′R)-5′-(1-methyl-1H-pyrazol-3-yl)-3-[(pyrrolo[2,1-f][1,2,4]triazin-4-yl)oxy]tetrahydro-3′H-spiro[cyclobutane-1,2′-pyrrolo[2,1-b][1,3]oxazol]-3′-one] | 33.3 nM
N#Cc1ccnc(O[C@H]2C[C@@]3(C2)O[C@@H]2CC[C@@H](c4cc(F)cc(F)c4)N2C3=O)n1 [Example 9.20, 2-{[(1r,3R,5′S,7a′R)-5′-(3,5-difluorophenyl)-3′-oxotetrahydro-3′H-spiro[cyclobutane-1,2′-pyrrolo[2,1-b][1,3]oxazol]-3-yl]oxy}pyrimidine-4-carbonitrile] | 53 nM
5-{[(1r,3R,5′S,7a′R)-3′-oxo-5′- phenyltetrahydro-3′H- spiro[cyclobutane-1,2′-pyrrolo[2,1- b][1,3]oxazol]-3-yl]oxy}pyridine-3- carbonitrile [Example 9.15] | 73 nM
O=C1N2C(CC[C@H]2c2cnccn2)OC12CC(OCc1ccc(C(F)F)cn1)C2 (stereo partly drawn) [Example 18.11, (5′S)-3-{[5-(difluoromethyl)pyridin-2-yl]methoxy}-5′-(pyrazin-2-yl)tetrahydro-3′H-spiro[cyclobutane-1,2′-pyrrolo[2,1-b][1,3]oxazol]-3′-one] | 89 nM
O=C1N2C(CC[C@H]2c2cnccn2)OC12CC(OCc1cccc3cncc(F)c13)C2 (stereo partly drawn) [Example 18.21, (5′S)-3-[(4-fluoroisoquinolin-5-yl)methoxy]-5′-(pyrazin-2-yl)tetrahydro-3′H-spiro[cyclobutane-1,2′-pyrrolo[2,1-b][1,3]oxazol]-3′-one] | 32 nM
O=C1N2[C@@H](CC[C@H]2c2ccccc2)OC12CC(Oc1ccnc(C(F)(F)F)c1)C2 (stereo partly drawn) [Example 8.4, (5′S,7a′R)-5′-phenyl-3-{[2-(trifluoromethyl)pyridin-4-yl]oxy}tetrahydro-3′H-spiro[cyclobutane-1,2′-pyrrolo[2,1-b][1,3]oxazol]-3′-one] | 86 nM
N#Cc1cccc(F)c1COC1CC2(C1)OC1CC[C@@H](c3cnccn3)N1C2=O (stereo partly drawn) [Example 18.100, 3-fluoro-2-({[(5′S)-3′-oxo-5′-(pyrazin-2-yl)tetrahydro-3′H-spiro[cyclobutane-1,2′-pyrrolo[2,1-b][1,3]oxazol]-3-yl]oxy}methyl)benzonitrile] | 472 nM
O=C1N2C(CC[C@H]2c2cnccn2)OC12CC(OCc1ccc3scnc3c1)C2 (stereo partly drawn) [Example 18.61, (5′S)-3-[(1,3-benzothiazol-5-yl)methoxy]-5′-(pyrazin-2-yl)tetrahydro-3′H-spiro[cyclobutane-1,2′-pyrrolo[2,1-b][1,3]oxazol]-3′-one] | 37 nM
O=C1N2C(CC[C@H]2c2cnccn2)OC12CC(OCc1cnn(-c3ccncc3)c1)C2 (stereo partly drawn) [Example 18.101] | 367 nM
Cn1nccc1-c1cc(O[C@H]2C[C@@]3(C2)O[C@@H]2CC[C@@H](c4cc(F)cc(F)c4)N2C3=O)ncn1 [Example 9.55, (5′S,7a′R)-5′-(3,5-difluorophenyl)-3-((6-(1-methyl-1H-pyrazol-5-yl)pyrimidin-4-yl)oxy)tetrahydro-3′H-spiro[cyclobutane-1,2′-pyrrolo[2,1-b]oxazol]-3′-one] | 13 nM
O=C1N2C(CC[C@H]2c2cnccn2)OC12CC(OCc1ccc(Cn3ccnc3)cc1)C2 (stereo partly drawn) [Example 18.25, (5′S)-3-({4-[(1H-imidazol-1-yl)methyl]phenyl}methoxy)-5′-(pyrazin-2-yl)tetrahydro-3′H-spiro[cyclobutane-1,2′-pyrrolo[2,1-b][1,3]oxazol]-3′-one] | 48 nM
O=C1N2[C@@H](CC[C@H]2c2cc(F)cc(F)c2)O[C@]12C[C@H](Oc1ncnc3occc13)C2 [Example 9.31, (1r,3R,5′S,7a′R)-5′-(3,5-difluorophenyl)-3-[(furo[2,3-d]pyrimidin-4-yl)oxy]tetrahydro-3′H-spiro[cyclobutane-1,2′-pyrrolo[2,1-b][1,3]oxazol]-3′-one] | 9 nM
